Laboratory results reported in patent publication US20250161287A1, “METHODS, COMPOSITIONS, AND COMBINATIONS FOR PREVENTING OR TREATING CANCER RECURRENCE” (VUJA DE SCIENCES, INC., priority 2022, published 2025).
“Also recorded” adds a separate entry of the source. Read-outs that look alike come from different tables or passages of the source.

Legend:
MG63.3 human OS cells = assay: PuMA (ex vivo Pulmonary Metastasis Assay) with MG63.3; assay type: cell-based; conditions: single agents, two doses: 100 nM and 1 μM (rapamycin 100 nM and 1 pM [sic]; AZD8055 10 and 100 nM), replicates=3-5
Method: FIG. 23A is a schematic illustrating the metastatic progression of GFP-expressing OS cells conducted by injecting single cells via tail vein injection, followed by lung excision and insufflation 15 mins post-injection. The formation of multicellular colonies in the mouse lung microenvironment can be assessed 14-21 days post-injection.
Dissected lungs are then sectioned and grown on sponges.

MG63.3 OS cell line [1] = assay: 2D growth / cytotoxicity by MTT, MG63.3; conditions: for doses exhibiting cytotoxicity on 2D growth: 72 h
Method: The number of viable cells present in 2D culture was determined by MTT as previously reported. Briefly, cells were plated in 96-well plates at 2,000 cells/well and incubated at 37° C. for 24 h. After 24 h, the media was replaced with fresh media containing drugs at the desired concentrations (10 pM-10 μM) and incubated at 37° C. for 72 h. After 72 h, MTT reagent (20 L/well of a 5 mg/mL stock solution in sterile water; Sigma, St. Louis, MO) was added to each well and the plate was incubated at 37° C. for 2 h. DMSO ([…]) was then added to each well to solubilize the formazan crystals.
(§1) The resulting absorbance was measured at 490 nm via plate reader (Molecular Devices, San Jose, CA). DMSO (0.1%) was used as vehicle control, while 20 μM rapamycin was used as a positive cell-kill control. The experimental conditions were conducted in triplicate and each experiment was repeated three times. Regression lines and IC50's were calculated using a four-parameter variable slope nonlinear fit in GraphPad Prism.

MG63.3 OS cell line [2] = assay: in vitro 3D BME assay with MG63.3 OS cell line; assay type: cell-based, human; conditions: for activity on 3D BME compared with 2D: MG63.3, 3D BME vs 2D MTT 72 h
Excerpt: (§2) 3D basement membrane extract (BME) assay was developed at the NCI Barkan (D. Barkan et al. 2008; Dalit Barkan and Green 2011; Hen and Barkan 2020). BME is purified from Engelbreth-Holm-Swarm (EHS) tumor, primarily made up of laminin, collagen IV, entactin, and heparin sulfate proteoglycans (Cultrex Reduced Growth Factor Basement Membrane Extract, PathClear n.d.), which allows it to more accurately reflect the 3D extracellular environment in the body.
(§3) Initially >150 selected therapeutic agents were tested on BME based on the likelihood for either a positive effect or a […] negative effect (as negative controls). […] These therapeutic agents were also tested in dose response (as broad as 1 pM-100 μM) for 2D cytotoxicity (MTT) and the IC50 was calculated. Where required, the hits from the initial screen were also further characterized at additional doses <100 nM in order to further determine the relative selectivity compared to the 2D IC50.
(§4) The influence of drug exposure on the metastatic phenotype was assessed in an in vitro assay of ME and escape from dormancy using a 3D BME assay as previously reported, which was adapted for use with OS cells.
(§5) Cultrex® PathClear, Reduced Growth Factor Basement Membrane Extract (BME—Bio-Techne, Minneapolis, MN) was added ([…]) to a 96-well plate and allowed to gel by incubating at 37° C. for ≥30 min. Cells were harvested, washed with DMEM (no glucose, no FBS, Gibco, Grand Island, NY) and centrifuged at 1500 g×5 mins. The media was aspirated and the remaining cell pellet flicked for about 10 s to ensure disaggregation.
(§6) Cells were diluted in assay media containing 2% BME, resuspended vigorously and 150 μL of the cell suspension was added on top of the gelled 3D BME layer. […] Cell numbers were determined in control vehicle (cells in media+0.1% DMSO), or treated wells and were measured on the indicated days by addition of 20 μL/well of MTS reagent (Cell Titer 96 Aqueous One, Promega, Madison, WI), followed by incubation at 37° C. for 2 h and absorbance measurements at 490 nm via plate reader (Molecular Devices, San Jose CA).
(§7) All conditions were conducted in quadruplicate and each experiment was carried out at least 3 separate times. All comparisons were made between treatment and vehicle control at concordant time points. Statistical analyses and non-linear regressions were derived using GraphPad Prism statistical software.

[3] = given alone at 2 mg/day, cited from earlier work
K7M2 OS cell line [4] = assay: 2D growth / cytotoxicity by MTT, K7M2; assay type: cell-based, mouse; conditions: for non-cytotoxic drug exposures in 2D: K7M2, MTT 72 h, 10 pM-100 μM
Method: The number of viable cells present in 2D culture was determined by MTT as previously reported. Briefly, cells were plated in 96-well plates at 2,000 cells/well and incubated at 37° C. for 24 h. […] After 72 h, MTT reagent (20 L/well of a 5 mg/mL stock solution in sterile water; Sigma, St. Louis, MO) was added to each well and the plate was incubated at 37° C. for 2 h. DMSO ([…]) was then added to each well to solubilize the formazan crystals.
as §1

MG63.3 OS cells = assay: in vitro SISGel assay with highly metastatic MG63.3 OS cells; assay type: cell-based, human; conditions: MG63.3 on SISGel, vs vehicle control, replicates=4
Excerpt: SISGel is comprised of porcine small intestine submucosa gel that was originally developed at Oklahoma State U., by R. Hurst (CSO) and M. Ihnat (Consultant) (Bailey-Downs et al. 2014; Hurst et al. 2013, 2015, 2016). Unlike BME which is derived from a tumor-based matrix, SISGel is derived from healthy stroma and provides a suppressive “normal” ECM. […] Conditions have been identified that promoted suppressed ME-type profile (FIG. 2A). […] In addition to SISGel's complementarity to the BME assay, it can also be conducted in a 96-well format, enabling a high-throughput system to model suppressed/dormant cancer cells to further validate the screening results in BME.

K7M2 OS cell line [5] = assay: in vitro 3D BME assay with K7M2 OS cell line; assay type: cell-based, mouse
Excerpt: as §2, §3, §4, §5, §6, §7

[6] = Homo sapiens, MG-63.3, MG63.3 on 3D BME, vs vehicle control, replicates=4, read-out: lowest dose leading to appreciable inhibition of 3D growth
[7] = MG63.3 on 3D BME, vs vehicle control, replicates=4
[8] = MG63.3 on 3D BME, vs vehicle control, replicates=4, read-out: lowest dose leading to appreciable inhibition of 3D growth

## COc1ccc(-c2ccc3c(N4CCOC[C@@H]4C)nc(N4CCOC[C@@H]4C)nc3n2)cc1CO [AZD8055]
MG63.3 human OS cells
  inhibition of ME (loss of GFP signal in the lung tissue): strong inhibition of ME
MG63.3 OS cell line [1]; human
  doses exhibiting cytotoxicity on 2D growth: > 100 nM
MG63.3 OS cell line [2]; [6]
  minimal effective concentration: 0.1 µM
MG63.3 OS cell line [2]
  activity on 3D BME compared with 2D: much stronger activity on 3D BME at slightly lower doses

## O=C(NC[C@H](O)CO)c1ccncc1Nc1ccc(I)cc1F [pimasertib]
MG63.3 OS cell line [1]; human
  doses exhibiting cytotoxicity on 2D growth: above 1 nM
MG63.3 OS cell line [2]; [7]
  lowest dose leading to complete inhibition of 3D growth: 100 nM

## Cn1cc(CNCC2CCN(c3ncc(C(=O)NO)cn3)CC2)c2ccccc21 [quisinostat]
MG63.3 OS cell line [1]; human
  doses exhibiting cytotoxicity on 2D growth: ≥ 80 nM
MG63.3 OS cell line [2]; [6]
  minimal effective concentration: 0.01 µM
MG63.3 OS cell line [2]
  activity on 3D BME compared with 2D: more active in 3D than in 2D
MG63.3 OS cell line [2]; MG63.3, selectivity = ratio of 3D to 2D % inhibition at the same dose, Class I, Class II, pan-HDAC
  3D activity and selectivity for ME in a screen of 10 HDAC inhibitors: highest 3D activity and selectivity for ME
MG63.3 OS cell line [2]; givinostat 400 nM, quisinostat 10 nM, MG63.3 3D BME
  3D growth inhibition and selectivity for ME at selected dose: significant 3D growth inhibition and selectivity for ME

## CO[C@H]1C[C@@H]2CC[C@@H](C)[C@@](O)(O2)C(=O)C(=O)N2CCCC[C@H]2C(=O)O[C@H]([C@H](C)C[C@@H]2CC[C@@H](O)[C@H](OC)C2)CC(=O)[C@H](C)/C=C(\C)[C@@H](O)[C@@H](OC)C(=O)[C@H](C)C[C@H](C)/C=C/C=C/C=C/1C [rapamycin]
[3]; months 4 through 12
  whole blood trough concentration mean: 19 ng/mL
  whole blood trough concentration range: 14 to 22 ng/mL
[3]; year 3
  whole blood trough concentration mean: 16 ng/mL
  whole blood trough concentration range: 11 to 22 ng/mL
K7M2 OS cell line [4]; K7M2, MTT, 72 h, tested 15 nM-100 μM
  doses leading to significant cytotoxicity on 2D growth: ≥ 10 PM
MG63.3 OS cell line [2]; [8]
  minimal effective concentration: 0.0005 µM
MG63.3 OS cells
  lowest dose leading to appreciable inhibition of 3D growth: 1 nM

## CNC(=O)c1cc(Oc2ccc(NC(=O)Nc3ccc(Cl)c(C(F)(F)F)c3)c(F)c2)ccn1 [regorafenib]
K7M2 OS cell line [5]; K7M2, Day 6 MTS, at or below 1 μM
  effect on metastatic phenotype / 3D growth in 3D BME (words): consistently inhibit 3D growth across both cell lines
K7M2 OS cell line [5]; K7M2, Day 6 growth by MTS
  inhibition in 3D BME at 100 nM: Significant inhibition was not seen
K7M2 OS cell line [5]; Mus musculus, 144 h, K7M2, Day 6 growth by MTS, P<0.005
  inhibition at 1 µM: ~20%
K7M2 OS cell line [4]
  non-cytotoxic drug exposures in 2D: below 1 μM
MG63.3 OS cell line [1]; MG63.3, MTT, exposures up to 1 μM / assessed exposures
  effect on cell number in 2D monolayer: no effect on remaining cell number
MG63.3 OS cell line [2]; Homo sapiens, MG-63.3, 144 h, MG63.3, Day 6 growth by MTS, P<0.005
  inhibition at 1 µM: ~20%
MG63.3 OS cell line [2]; MG63.3, Day 6 MTS, at or below 1 μM
  effect on metastatic phenotype / 3D growth in 3D BME (words): consistently inhibit 3D growth across both cell lines
MG63.3 OS cell line [2]; MG63.3, Day 6 growth by MTS
  inhibition in 3D BME at 100 nM: Significant inhibition was not seen

## C=CCNc1c(O)cc2c(O)c1C[C@@H](C)C[C@H](OC)[C@H](O)[C@@H](C)/C=C(\C)[C@H](OC(N)=O)[C@@H](OC)/C=C\C=C(/C)C(=O)N2 [retaspimycin]
MG63.3 OS cell line [1]; MG63.3, MTT, replicates=3
  doses exhibiting cytotoxicity on 2D growth: > 400 nM
MG63.3 OS cell line [2]; [6]
  minimal effective concentration: 0.2 µM

## CC(C)n1nc(-c2ccc3oc(N)nc3c2)c2c(N)ncnc21 [sapanisertib]
MG63.3 OS cell line [1]; human
  doses exhibiting cytotoxicity on 2D growth: > 8 nM
MG63.3 OS cell line [2]; [6]
  minimal effective concentration: 0.001 µM

## CN1CCN(CCOc2cc(OC3CCOCC3)c3c(Nc4c(Cl)ccc5c4OCO5)ncnc3c2)CC1 [saracatinib]
K7M2 OS cell line [4]
  non-cytotoxic drug exposures in 2D: below 1 μM

## Cn1ncnc1[C@H]1c2n[nH]c(=O)c3cc(F)cc(c23)N[C@@H]1c1ccc(F)cc1 [talazoparib]
MG63.3 OS cell line [1]; human
  doses exhibiting cytotoxicity on 2D growth: > 100 nM
MG63.3 OS cell line [2]; [6]
  minimal effective concentration: 0.0125 µM
MG63.3 OS cell line [2]
  activity on 3D BME compared with 2D: much stronger activity on 3D BME at significantly lower doses

## C=CCNC1=C2C[C@@H](C)C[C@H](OC)[C@H](O)[C@@H](C)/C=C(\C)[C@H](OC(N)=O)[C@@H](OC)/C=C\C=C(/C)C(=O)NC(=CC1=O)C2=O [tanespimycin]
MG63.3 OS cell line [1]; MG63.3, MTT, replicates=3
  doses exhibiting cytotoxicity on 2D growth: > 25 nM
MG63.3 OS cell line [2]; Homo sapiens, MG-63.3, read-out: lowest dose leading to appreciable inhibition of 3D growth
  minimal effective concentration: 0.025 µM

## O=C(Cc1cccc(OC(F)(F)F)c1)Nc1ccc(CCCCc2nnc(NC(=O)Cc3ccccn3)s2)nn1 [telaglenastat]
MG63.3 OS cell line [1]; human
  doses exhibiting cytotoxicity on 2D growth: > 100 nM
MG63.3 OS cell line [1]; telaglenastat 100 nM, MG63.3
  effect in 2D at the same dose: no statistically significant inhibition; also recorded: inactive
MG63.3 OS cell line [2]; [6]
  minimal effective concentration: 0.001 µM
MG63.3 OS cell line [2]
  activity on 3D BME compared with 2D: much stronger activity on 3D BME at significantly lower doses; also recorded: more active in 3D than in 2D
MG63.3 OS cell line [2]; [8]
  minimal effective concentration: 0.001 µM
MG63.3 OS cell line [2]; telaglenastat 100 nM, MG63.3
  growth in cell number in 3D BME at highest 2D inactive dose: 10%

## CC(C)[C@]12O[C@H]1[C@@H]1O[C@]13[C@]1(O[C@H]1C[C@H]1C4=C(CC[C@@]13C)C(=O)OC4)[C@@H]2O [triptolide]
MG63.3 OS cell line [1]
  cytotoxicity on 2D growth: cytotoxicity at all doses tested
MG63.3 OS cell line [2]; [7]
  lowest dose leading to complete inhibition of 3D growth: 1 nM

## CNC(=O)c1cccc(-c2ccc3c(N4CCOC[C@@H]4C)nc(N4CCOC[C@@H]4C)nc3n2)c1 [vistusertib]
MG63.3 OS cell line [1]; human
  doses exhibiting cytotoxicity on 2D growth: > 0.64 nM
MG63.3 OS cell line [2]; [6]
  minimal effective concentration: 0.1 µM
MG63.3 OS cell line [2]
  activity on 3D BME compared with 2D: slightly stronger activity on 3D BME at 100 nM
